We go through three compounds from US4933456A, “Dipyridoxyl phosphate NMRI contrast agents” (Salutar, Inc., priority 1987, dated 1990).

Data set [1] can be described thus: Potentiometric titration of the ligand DPDP. It counts as physicochemical. To be noted: pH of 3 and above. The protocol:
The compound DPDP was studied potentiometrically from pH 11.2 to 2.0. Data sets were collected on a custom-built automatic potentiometric titration apparatus composed of a METROHM 655 DOSIMAT automatic buret, a FISHER ACCUMET pH meter with a CORNING calomel combination electrode, a custom-blown water jacketed titration cell, a BRINKMAN LAUDA K-2/R constant temperature bath and a COMMODORE 64 computer. […] Data analysis was performed on an IBM-AT computer using the least squares program, BETA (Harris, W. et al, supra), and the data analysis program, HANDNBAR (Harris, W. et al, supra). The titrants were standardized by phenophthalein titration as follows: KOH was calibrated against potassium hydrogen phthalate (a primary standard), and HCl solutions were calibrated against the KOH standard. […] All solutions were made from distilled, deionized water that was further purified on a MILLI-Q cartridge system, degassed, and then kept under an atmosphere of argon which had been scrubbed for CO2 and O2. Additions of EDTA and Mn(II) solutions were performed using calibrated GILMOT pipets.

For data set [2] the following is noted: cited from earlier work.

In the case of `Cc1ncc(COP(=O)(O)O)c(CN(CCN(CC(=O)O)Cc2c(COP(=O)(O)O)cnc(C)c2O)CC(=O)O)c1O` [DPDP, N,N'-bis-(pyridoxal-5-phosphate)ethylenediamine-N,N'-diacetic acid or N,N'-bis(3-hydroxy-2-methyl-5-phosphonomethyl-4-pyridylmethyl)ethylenediamine-N,N'-diacetic acid], in data set [1], the “ionization state of the ligand” value was “anionic and possesses deprotonated metal binding sites”.

Regarding `O=C(O)CN(CCN(CC(=O)O)Cc1ccccc1O)Cc1ccccc1O` [HBED, N,N'-bis(2-hydroxybenzyl)ethylenediamine-N,N'-diacetic acid], the “log Kf (formation constant)” value in data set [2] (manganese chelate, reported by L'Eplathenier et al) was 14.8. For the same compound, the “oxidation of manganese(II) by the phenolic ligand during titration” value in data set [2] (titrations of L'Eplathenier et al, judged from Patch et al) is on record as “oxidized by the phenolic ligand”. Take `O=C(O)C(NCCNC(C(=O)O)c1ccccc1O)c1ccccc1O` (centres unmarked) [EHPG, N,N'-ethylenebis-2-(o-hydroxyphenyl)glycine]: the “stability of the Fe(III) chelate” value in data set [2] (Anderegg et al) is given as “high stability”. Further, the “oxidation of manganese(II) in EHPG complexes” value in data set [2] (above pH 5, also under inert atmospheres, Frost et al) is “irreversibly oxidized”.
